Measured values taken from ChEMBL document CHEMBL1201862, “PubChem BioAssay data set” (2004).
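Cultured in 96-well plates, cells were exposed to test compound for 48 hours across five concentrations. The concentration for 50% growth inhibition is given as GI50.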 Calls of active or inactive are those of the source. Cut-off read from the data, not from the text of the source: active = GI50 up to about 1.1 µM and inactive = higher. Square brackets hold non-standard residues; d marks the D form. Peptide text beside a SMILES is read from it. * marks the point of attachment. Boc = CC(C)(C)OC(=O)*; OBn = c1ccc(CO*)cc1

How the values were obtained:
Test in all cases: inhibition of tumour cell growth, NCI panel, 48 h
786-0 = test system: 786-0
BT-549 = test system: BT-549
DU-145 = test system: DU-145
MCF7 = test system: MCF7
MOLT-4 = test system: MOLT-4
NCI-H226 = test system: NCI-H226
NCI-H23 = test system: NCI-H23
OVCAR-3 = test system: OVCAR-3
OVCAR-4 = test system: OVCAR-4
SF-295 = test system: SF-295
SK-MEL-2 = test system: SK-MEL-2
SK-MEL-5 = test system: SK-MEL-5
SK-OV-3 = test system: SK-OV-3
SNB-75 = test system: SNB-75
T47D = test system: T47D
UACC-257 = test system: UACC-257
A498 = test system: A498
HOP-62 = test system: HOP-62
RPMI-8226 = test system: RPMI-8226

Measured: GI50

CN(C(=O)c1ccc2c(c1)sc1c(=O)n(C)c3ccccc3c12)c1ccccc1
inactive: 786-0 59.7 µM | BT-549 > 100 µM | DU-145 > 100 µM | MCF7 > 100 µM | MOLT-4 > 100 µM | NCI-H226 > 100 µM | NCI-H23 > 100 µM | OVCAR-3 > 100 µM | OVCAR-4 > 100 µM | SF-295 > 100 µM | SK-MEL-2 > 100 µM | SK-MEL-5 > 100 µM | SK-OV-3 > 100 µM | SNB-75 > 100 µM | T47D > 100 µM | UACC-257 > 100 µM

O/N=C(\C=N\O)c1ccc2c(c1)Sc1ccccc1O2
inactive: 786-0 17.5 µM | A498 15.6 µM | BT-549 14.5 µM | DU-145 39.8 µM | HOP-62 17.5 µM | MCF7 16.9 µM | MOLT-4 5.43 µM | NCI-H226 23.2 µM | NCI-H23 21.6 µM | OVCAR-3 17.7 µM | OVCAR-4 25.1 µM | RPMI-8226 12.2 µM | SF-295 22.3 µM | SK-OV-3 18.1 µM | SNB-75 16.1 µM | T47D 24.5 µM | UACC-257 19.5 µM

CCOC(=O)C1(C(=O)OCC)CCCN1C(=O)[C@H](CNC(=O)OC(C)(C)C)NC(=O)OCc1ccccc1
inactive: 786-0 > 100 µM | BT-549 > 100 µM | DU-145 > 100 µM | HOP-62 > 100 µM | MCF7 > 100 µM | MOLT-4 27.8 µM | NCI-H226 > 100 µM | NCI-H23 > 100 µM | OVCAR-3 > 100 µM | OVCAR-4 > 100 µM | RPMI-8226 31.3 µM | SF-295 > 100 µM | SK-MEL-2 > 100 µM | SK-MEL-5 > 100 µM | SK-OV-3 > 100 µM | SNB-75 79.6 µM | T47D > 100 µM | UACC-257 > 100 µM

C(#Cc1ccccc1)SC1=C(c2ccccc2)S/C(=C(\SC#Cc2ccccc2)c2ccccc2)S1
inactive: 786-0 > 100 µM | BT-549 > 100 µM | DU-145 > 100 µM | HOP-62 > 100 µM | MCF7 > 100 µM | MOLT-4 > 100 µM | NCI-H226 > 100 µM | NCI-H23 > 100 µM | OVCAR-3 > 100 µM | OVCAR-4 > 100 µM | SF-295 > 100 µM | SK-MEL-5 > 100 µM | SK-OV-3 > 100 µM | SNB-75 > 100 µM | T47D > 100 µM | UACC-257 > 100 µM

CCOC(=O)/C=C(/C(=O)OCC)n1ccc(=O)n(Cc2cnnn2CCCCOC(C)=O)c1=O
inactive: 786-0 18.5 µM | BT-549 60.3 µM | DU-145 > 100 µM | HOP-62 > 100 µM | MCF7 52 µM | MOLT-4 20.4 µM | NCI-H226 > 100 µM | NCI-H23 > 100 µM | OVCAR-3 > 100 µM | OVCAR-4 > 100 µM | RPMI-8226 59.2 µM | SF-295 > 100 µM | SK-MEL-2 > 100 µM | SK-MEL-5 > 100 µM | SK-OV-3 > 100 µM | SNB-75 > 100 µM | T47D > 100 µM | UACC-257 > 100 µM

CC1=NN2C(=O)CC(=O)N=C2S1
inactive: 786-0 > 100 µM | BT-549 > 100 µM | DU-145 > 100 µM | HOP-62 > 100 µM | MCF7 > 100 µM | MOLT-4 > 100 µM | NCI-H226 > 100 µM | NCI-H23 > 100 µM | OVCAR-3 > 100 µM | OVCAR-4 > 100 µM | RPMI-8226 > 100 µM | SF-295 > 100 µM | SK-MEL-2 > 100 µM | SK-MEL-5 > 100 µM | SK-OV-3 > 100 µM | SNB-75 > 100 µM | T47D > 100 µM | UACC-257 > 100 µM

COc1ccc2cc(C(C)C(O)c3cc(F)c(F)c(F)c3F)ccc2c1 (centres undefined)
inactive: 786-0 > 100 µM | A498 > 100 µM | BT-549 > 100 µM | DU-145 > 100 µM | HOP-62 26.2 µM | MCF7 > 100 µM | MOLT-4 > 10 µM | NCI-H226 > 100 µM | NCI-H23 49.8 µM | OVCAR-3 98.6 µM | OVCAR-4 70.5 µM | RPMI-8226 > 100 µM | SF-295 40.4 µM | SK-MEL-5 > 100 µM | SK-OV-3 > 100 µM | SNB-75 16.3 µM | T47D 53.5 µM | UACC-257 > 100 µM

Cc1nc(C)c(N2CCN(Cc3ccccc3)CC2)c(O)n1
inactive: 786-0 > 100 µM | A498 > 100 µM | BT-549 > 100 µM | DU-145 > 100 µM | HOP-62 > 100 µM | MCF7 > 100 µM | MOLT-4 > 100 µM | NCI-H226 > 100 µM | NCI-H23 > 100 µM | OVCAR-3 > 100 µM | OVCAR-4 > 100 µM | RPMI-8226 > 100 µM | SF-295 > 100 µM | SK-MEL-5 > 100 µM | SK-OV-3 > 100 µM | T47D > 100 µM | UACC-257 > 100 µM

Cc1c(O)c(OC2OC(CO)C(O)C(O)C2O)cc2c1CC[C@@H]1C2(C)C(=O)C[C@]2(C)[C@@H]([C@@](C)(O)C(O)/C=C/C(C)(C)O)[C@H](O)C[C@@]12C (some centres undefined)
inactive: 786-0 > 100 µM | A498 > 100 µM | BT-549 > 100 µM | DU-145 > 100 µM | HOP-62 > 100 µM | MCF7 > 100 µM | MOLT-4 > 100 µM | NCI-H226 > 100 µM | NCI-H23 > 100 µM | OVCAR-3 > 100 µM | OVCAR-4 > 100 µM | SF-295 > 100 µM | SK-MEL-2 > 100 µM | SK-MEL-5 > 100 µM | SK-OV-3 > 100 µM | SNB-75 > 100 µM | T47D > 100 µM | UACC-257 > 100 µM

Cc1cnc2nc(-c3sccc3C)cc(O)c2c1
inactive: 786-0 4.1 µM | A498 23.4 µM | BT-549 9.42 µM | DU-145 4.74 µM | HOP-62 5.08 µM | MCF7 2.84 µM | MOLT-4 6.18 µM | NCI-H226 4.14 µM | NCI-H23 3.7 µM | OVCAR-3 3.13 µM | OVCAR-4 > 100 µM | SF-295 2.26 µM | SK-MEL-2 3.4 µM | SK-MEL-5 1.23 µM | SK-OV-3 4.03 µM | SNB-75 4.32 µM | T47D > 100 µM | UACC-257 8.38 µM

C[C@@H](NC(=O)CNC(=O)OC(C)(C)C)C(=O)N[C@@H](Cc1ccccc1)C(=O)OCc1ccccc1 (Boc-Gly-[dA]-Phe-OBn)
inactive: 786-0 84.7 µM | BT-549 > 100 µM | DU-145 > 100 µM | MCF7 > 100 µM | MOLT-4 15 µM | NCI-H226 51.1 µM | NCI-H23 > 100 µM | OVCAR-4 > 100 µM | SF-295 > 100 µM | SK-MEL-2 26.7 µM | SK-MEL-5 22.8 µM | SK-OV-3 > 100 µM | SNB-75 43.9 µM | T47D 63.4 µM | UACC-257 33.7 µM
